Our source for the IC50 values is ChEMBL document CHEMBL1137951, “Synthesis and in vitro evaluation of 7-dialkylaminomethylbenzo[g]quinoxaline-5,10-diones” (Bioorg Med Chem Lett, 2004).

What all share (type): functional, cell-based
The test system of one assay is T47D. The assay can be described thus: In vitro cytotoxic activity against human breast cancer cell line T-47D after 72 hr of drug exposure determined by the SRB assay.
The subject of a further assay is HCT-15. The assay can be described thus: In vitro cytotoxic activity against human colon cancer cell line HCT15 after 72 hr of drug exposure determined by the SRB assay. As to conditions: HCT-15, 72 h. (In general: The SRB assay estimates cell density from bound dye.)
A further assay has as its system MDA-MB-468. The assay can be described thus: In vitro cytotoxic activity against human breast cancer cell line MD-MB-468 after 72 hr of drug exposure determined by the SRB assay. As to conditions: MDA-MB-468, 72 h.
The next assay concerns SK-OV-3. Kind of assay: In vitro cytotoxic activity against human ovarian carcinoma cell line SK-OV-3 after 72 hr of drug exposure determined by the SRB assay. Particulars: SK-OV-3, 72 h.

With `O=C1c2ccc(CN3CCOCC3)cc2C(=O)c2nccnc21`, the IC50 (as a rule, the concentration needed to halve the response being measured) in the assay with T47D stood at 1300 nM; with HCT-15 it was 1300 nM; with MDA-MB-468, 3200 nM; in the assay on SK-OV-3 it was 7000 nM.
Regarding `CN(C)Cc1ccc2c(c1)C(=O)c1nccnc1C2=O`, the IC50 in the assay with T47D was 100 nM; with HCT-15 it was 100 nM; in the assay on MDA-MB-468, 100 nM; in the assay on SK-OV-3 it was 220 nM.
For the molecule `CN1CCN(Cc2ccc3c(c2)C(=O)c2nccnc2C3=O)CC1`, the IC50 amounted to 3000 nM in the assay on T47D, 1200 nM in the assay on HCT-15, 3000 nM with MDA-MB-468 and 10000 nM with SK-OV-3.
Take `CO[C@@]12[C@H](COC(N)=O)C3=C(C(=O)C(C)=C(N)C3=O)N1C[C@@H]1N[C@@H]12` [MITOMYCIN]: the IC50 was 400 nM with T47D, 70 nM in the assay with HCT-15, 270 nM in the assay with MDA-MB-468 and 180 nM with SK-OV-3.
For the molecule `O=C1c2ccc(CN3CCCCC3)cc2C(=O)c2nccnc21`, the IC50 was found to be 80 nM in the assay on T47D, 50 nM with HCT-15, 200 nM with MDA-MB-468 and 400 nM in the assay with SK-OV-3.
Turning to `O=C1c2ccc(CN3CCCC3)cc2C(=O)c2nccnc21`, the IC50 in the assay with T47D was 100 nM; with HCT-15 it was 100 nM; in the assay with MDA-MB-468 it was 100 nM; in the assay with SK-OV-3 it was 250 nM.
With `O=C1c2ccc(CBr)cc2C(=O)c2nccnc21`, the IC50 in the assay with T47D is 500 nM; in the assay on HCT-15 it was 400 nM; in the assay with MDA-MB-468, 300 nM; in the assay on SK-OV-3 it was 1600 nM.
For `Cc1ccc2c(c1)C(=O)c1nccnc1C2=O`, the IC50 with T47D stood at 1200 nM; in the assay on HCT-15, 120 nM; in the assay with MDA-MB-468 it was 1500 nM; in the assay with SK-OV-3, 2200 nM.
For `O=C1c2ccc(CN(CCO)CCO)cc2C(=O)c2nccnc21`, in that order: 900 nM, 180 nM, 900 nM and 1200 nM.
As to `COc1cccc2c1C(=O)c1c(O)c3c(c(O)c1C2=O)C[C@@](O)(C(=O)CO)C[C@@H]3O[C@H]1C[C@H](N)[C@H](O)[C@H](C)O1` [DOXORUBICIN], the values for the IC50 in the assay on T47D, in the assay with HCT-15 and in the assay on MDA-MB-468 were 7 nM, 25 nM and 7 nM, respectively.
